From patent US5236837A, “Enzymatic reagent for D-malate determination” (Boehringer Mannheim GmbH, priority 1989, dated 1993)
Where two headings read alike, the source gives them in different places.

Experiments:
[1] = tested on: D-malic enzyme from Pseudomonas fluorescens; details: cited from earlier work
[2] = tested on: D-malic enzyme from E. coli K12 (Crookes strain); details: EDTA 3.3 μmol/ml; raw extract; cited from earlier work
[3] = biological target: T1, NAD+-dependent D-malate dehydrogenase (decarboxylating, E.C. 1.1.1.83) from E. coli (D-MDH, E. coli DSM 5496) (Escherichia coli, UniProt P76251); assay: Km determination and EDTA effect on the enzyme according to the invention; type: biochemical; details: EDTA 0.7 mg/ml test solution
T1 construct: two 42 kD subunits, full length, no tag
T1 sequence (P76251 1-361): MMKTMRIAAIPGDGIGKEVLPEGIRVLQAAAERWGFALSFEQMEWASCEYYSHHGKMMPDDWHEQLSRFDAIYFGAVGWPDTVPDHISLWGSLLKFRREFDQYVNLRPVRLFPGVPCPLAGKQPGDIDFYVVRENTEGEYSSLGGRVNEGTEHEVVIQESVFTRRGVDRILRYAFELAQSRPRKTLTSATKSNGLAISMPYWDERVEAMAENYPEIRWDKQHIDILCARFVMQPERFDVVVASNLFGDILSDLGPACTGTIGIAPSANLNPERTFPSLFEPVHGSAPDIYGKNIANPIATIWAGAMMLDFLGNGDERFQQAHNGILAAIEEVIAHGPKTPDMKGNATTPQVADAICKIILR

[4] = substrate: NC(=O)c1ccc[n+]([C@@H]2O[C@H](COP(=O)([O-])OP(=O)(O)OC[C@H]3O[C@@H](n4cnc5c(N)ncnc54)[C@H](O)[C@@H]3O)[C@@H](O)[C@H]2O)c1; assay: as above; type: biochemical, E. coli; details: other: Tris, pH 8.5, 25° C., pH 8.5
[5] = substrate: O=C(O)C[C@@H](O)C(=O)O; assay: as above; type: biochemical, E. coli

In the case of `NC(=O)c1ccc[n+]([C@@H]2O[C@H](COP(=O)([O-])OP(=O)(O)OC[C@H]3O[C@@H](n4cnc5c(N)ncnc54)[C@H](O)[C@@H]3O)[C@@H](O)[C@H]2O)c1` [NAD^+], the Km ([1]; read-out: Km for NAD+) is given as 80 µM.

For `O=C(O)CN(CCN(CC(=O)O)CC(=O)O)CC(=O)O` [EDTA], the “Inhibition of the reaction by EDTA” value [2] is given as “inhibited” and the “Inhibition of enzyme activity by EDTA” value [3] is given as “not inhibited”.

In the case of `O=C(O)C[C@@H](O)C(=O)O` [D-malate], the Km ([1]; read-out: Km for malate) is listed as 300 µM.

B1: NAD+-dependent D-malate dehydrogenase (decarboxylating, E.C. 1.1.1.83) from E. coli (D-MDH, E. coli DSM 5496) (Escherichia coli K-12) (protein)
chain: T1 sequence (P76251 1-361)
notes: two 42 kD subunits, full length, no tag
For B1, the Km [4] was 400 µM, the Km ([5]; other: HEPES, pH 9.0, 25° C., pH 9.0) was 1500 µM and the Km ([5]; other: Tris, pH 8.5, 25° C., pH 8.5) was 1100 µM.
